“Also recorded” adds a separate entry of the source.
Assays:
Assay type in all cases: cell-based, mouse
primary microglia = experiment: Ex vivo microglial phagocytosis assay
Method: Whole brain myelin-depleted single-cell suspensions were prepared as described above. Next, a rough estimation of microglia counts from each brain was determined by strictly gating a volume-designated aliquot of the suspensions by forward scatter/side scatter on a flow cytometer (BD Accuri C6). Each suspension was adjusted to contain equal numbers of microglia per unit volume. Then, single cell brain suspensions were treated with sialidase, a CD22 blocking antibody (R&D), or no treatment for 1 hour at 37° C. with periodic agitation. Treatments were washed out and cells were resuspended in FACS buffer containing pHrodo- or CypHer5E-conjugated particles at a ratio of 50 particles per microglia. The cell-particle mixture was incubated for 1-2 hours at 37° C. with periodic agitation. Phagocytosis was stopped by transferring the suspensions to ice, where the cells were stained with antibodies to distinguish microglia. Microglial phagocytosis was assessed by flow cytometry by pre-gating live CD11b+CD45lo cells and assessing pH dependent particle fluorescence within this population. The eating gate was determined using an unfed control, and confirmed by sorting an aliquot of the sample into noneating and eating populations by FACS followed by microscopic assessment.
Whole brain myelin-depleted single-cell suspensions were prepared as described above. Next, a rough estimation of microglia counts from each brain was determined by strictly gating a volume-designated aliquot of the suspensions by forward scatter/side scatter on a flow cytometer (BD Accuri C6). Each suspension was adjusted to contain equal microglia per unit volume. Then, single cell brain suspensions were treated accordingly for 1 hour in serum free DMEM-F12 at 37° C. with periodic agitation. Treatments were washed out and cells were resuspended in FACS buffer containing pHrodo- or CypHer5E-conjugated particles at a ratio of 50 particles per microglia. The cell-particle mixture was incubated for 1-2 hours at 37° C. with periodic agitation. Phagocytosis was stopped by transferring the suspensions to ice, where the cells were stained with antibodies to distinguish microglia. Microglial phagocytosis was assessed by flow cytometry by pre-gating live CD11b+CD45lo cells and assessing pH-dependent particle fluorescence within this population. The eating gate was determined using an unfed control, and confirmed by sorting an aliquot of the sample into non-eating and eating populations by FACS followed by microscopic assessment.

BV2 cells [1] = experiment: In vitro phagocytosis assay of pH-dependent fluorescent particles; details: for Phagocytosis of pH-sensitive fluorescent beads by BV2 cells: WT BV2, time-lapse microscopy 24 hours, sialidase 400 nM 1 hour, 3Fax-Neu5Ac 32 uM; for Phagocytosis of pH-dependent fluorescent particles by BV2 cells: wild-type BV2, no serum or young serum prior to feeding, monitored over 24 hours
Method: (§1) For in vitro phagocytosis assays, cells were split into a 24-well plate 8-24 hours prior to serum treatment at a density of 50,000 cells/well. Following specific treatments, wells were washed twice with PBS and fed pHrodo-labeled 3 μm amino-coated polystyrene particles (Polysciences) at a ratio of 10 particles per cell or crude myelin, isolated as previously described^47, at 1 mg/mL. pHrodo labeling was carried out as previously described to minimize background fluorescence^37. 4 phase and red fluorescent images per well were acquired every hour for 24 hours using the Incucyte S3 live cell analysis system (Essen Bioscience). For each time point, normalized phagocytosis was calculated using the following formula: red object area/phase confluence. To combine data from independent experiments, phagocytosis was calculated relative to control by setting phagocytosis at zero hours in the no serum control cell condition to 0, and this value at 24 hours to 1. Technical triplicates for each experiment were averaged, and the average of three independent experiments was reported.
(§2) For sialidase treatment, cells were incubated with 400 nM Vibrio cholerae sialidase for 1 hour at 37° C. in serum-free DMEM following serum treatment and prior to feeding. 3Fax-Neu5Ac (R&D) was used as previously described^33. The inhibitor was used at a concentration of 32 μM serially diluted in DMSO and used at a final concentration of 0.1% DMSO in DMEM. 3Fax-Neu5Ac was added with serum treatments for 48 hours prior to phagocytosis assays, and replaced in the feeding medium.
Cells were split into a 24-well plate 24 hours prior to feeding at a density of 50,000 cells/well in serum free medium. Following specific treatments, wells were washed twice with PBS and fed pHrodo-labeled 3 micron amino-coated polystyrene particles (Polysciences) at a ratio of 10 particles per cell. pHrodo labeling was carried out as previously described to minimize background fluorescence^37. 4 phase and red fluorescent images per well were acquired every hour for 24 hours using the Incucyte S3 live cell analysis system (Essen Bioscience). For each time point, normalized phagocytosis was calculated using the following formula: red object area/phase confluence. To combine data from independent experiments, phagocytosis relative to control was calculated by setting phagocytosis at zero hours in the control condition to 0, and this value at 24 hours to 1. Technical triplicates for each experiment were averaged, and the average of three independent experiments was identified.
as §2, with “Cells” for “For sialidase treatment, cells”, “DMEM” for “DMEM following serum treatment and”, “phagocytosis.” for “feeding.”, “described^58.” for “described^33.”, “uM” for “μM”

BV2 cells [2] = experiment: Lectin (SNA, MAA) staining of cell-surface sialic acid by flow cytometry; details: WT BV2 cells pretreated with sialidase
Source text: Antibodies to CD11b (clone M1/70, BioLegend) and CD45 (clone 30-F11, Biolegend) were used for microglia identification (CD11b+CD45lo). For primary microglia immunophenotyping, the following lectins and antibodies were used: biotinylated Sambucus nigra agglutinin (SNA, Vector Labs), biotinylated Maackia amurensis agglutinins (MAA-1 and MAA-2, Vector), biotinylated Erythrina cristagalli lectin (ECL, EY Labs), biotinylated wheat germ agglutinin (WGA, Vector), recombinant mouse Siglec-E (R&D), recombinant mouse Siglec-F (R&D), antibodies to mouse Siglec-1 (clone REA197, Miltenyi Biotec), CD22 (clone OX-97, Biolegend), Siglec-E (clone M1304A01, Biolegend), Siglec-F (clone ES22-10D8, Miltenyi Biotec), Siglec-G (clone SH1, BD Biosciences), Siglec-H (clone 551, Biolegend), CD33 (clone 9A11, eBioscience), Galectin-3 (clone M3/38, Biolegend). For immunostaining, cells were passed through a 100 μm strainer, blocked for 10 minutes on ice with mouse Fc-blocking reagent (BD), and stained for 30 minutes on ice in DPBS containing calcium and magnesium supplemented with 1% bovine serum albumin. […] Data was analyzed using FlowJo software (TreeStar).
Antibodies to CD11b (clone M1/70, BioLegend) and CD45 (clone 30-F11, Biolegend) were used for microglia identification (CD11b+CD45lo). […] Data was analyzed using FlowJo software (TreeStar).

peritoneal macrophages = experiment: Peritoneal macrophage phagocytosis of pH-dependent fluorescent latex particles; details: aged (20-month-old) compared to young (2-month-old) macrophages; sialidase
Method: as §1
For sialidase treatment, cells were incubated with 400 nM Vibrio cholerae sialidase for 1 hour at 37° C. in serum-free DMEM following serum treatment and prior to feeding. 3Fax-Neu5Ac (R&D) was used as previously described^33. […]

sialidase: Sialidase from Vibrio cholerae expressed in Escherichia coli C600; removes cell-surface sialic acid
Ex vivo phagocytosis by microglia from aged CD22−/− mice (primary microglia; aged (18 m.o.) CD22−/−): had no effect in CD22−/− microglia
Ex vivo phagocytosis of latex particles by aged microglia (primary microglia; aged WT mice, 1 hour pretreatment, flow cytometry): rescued phagocytosis in aged microglia; also recorded: promoted phagocytosis in WT microglia
Ex vivo phagocytosis by microglia from 12-month-old CD22−/− mice (primary microglia; relative to age-matched wild-type control microglia): reduced pro-phagocytic response to sialidase
Ex vivo phagocytosis of latex particles by young microglia (primary microglia; young (2-month-old) mice): did not enhance phagocytosis in already competent young microglia
Phagocytosis of pH-sensitive fluorescent beads by CD22 KO BV2 cells (BV2 cells [1]; CD22 KO BV2 + sialidase): completely abrogated in the absence of CD22
Phagocytosis of pH-sensitive fluorescent beads by BV2 cells (BV2 cells [1]): promotes phagocytosis in BV2 cells
Phagocytosis of pH-dependent fluorescent particles by BV2 cells (BV2 cells [1]): promote phagocytosis in the absence of young serum
SNA and MAA ligand expression on the cell surface (BV2 cells [2]): reduce sialic acid ligands on the cell surface
Phagocytosis by peritoneal macrophages (peritoneal macrophages): increased phagocytosis dramatically in aged macrophages

C=C1[C@@H](C)[C@H]2[C@H](Cc3ccccc3)NC(=O)[C@]23[C@H](OC(C)=O)/C=C/[C@@](C)(O)C(=O)[C@@H](C)C/C=C/[C@H]3[C@@H]1O [cytochalasin D, reference compound]
Engulfment of pH-dependent beads by BV2 cells (flow cytometry) (BV2 cells [1]; 1 hour of feeding, used to define eating gate): actin polymerization is blocked preventing engulfment

COC(=O)C1(OC(C)=O)OC([C@H](OC(C)=O)[C@@H](COC(C)=O)OC(C)=O)C(NC(C)=O)C(OC(C)=O)C1F (stereo partly drawn) [3Fax-Neu5Ac, reference compound]
Phagocytosis of pH-sensitive fluorescent beads by BV2 cells (BV2 cells [1]): promotes phagocytosis in BV2 cells
Phagocytosis of pH-dependent fluorescent particles by BV2 cells (BV2 cells [1]): promoted phagocytosis in the no serum condition only

— patent US11891442B2, “Compositions and methods for treating age-related diseases” (priority 2017, dated 2024)
